Patent publication US6365617B1, “Indole and indazole urea-peptoids as thrombin receptor antagonists” (Ortho-McNeil Pharmaceutical, Inc., priority 1999, dated 2002)
Like-named read-outs stand apart in the source and are kept apart here.

How the values were obtained:
[1] = biological target: T1, thrombin receptor (PAR-1) (Homo sapiens, UniProt P25116); experiment: In vitro thrombin receptor binding assay (CHRF membranes, tritiated 721-40)
T1 construct: CHRF membranes (Jones, Biochim. Biophys. Acta 1992, 1136, 272) are thawed from −70° C; endogenous in cells; host or cells: CHRF cell membranes
T1 sequence (P25116 22-425): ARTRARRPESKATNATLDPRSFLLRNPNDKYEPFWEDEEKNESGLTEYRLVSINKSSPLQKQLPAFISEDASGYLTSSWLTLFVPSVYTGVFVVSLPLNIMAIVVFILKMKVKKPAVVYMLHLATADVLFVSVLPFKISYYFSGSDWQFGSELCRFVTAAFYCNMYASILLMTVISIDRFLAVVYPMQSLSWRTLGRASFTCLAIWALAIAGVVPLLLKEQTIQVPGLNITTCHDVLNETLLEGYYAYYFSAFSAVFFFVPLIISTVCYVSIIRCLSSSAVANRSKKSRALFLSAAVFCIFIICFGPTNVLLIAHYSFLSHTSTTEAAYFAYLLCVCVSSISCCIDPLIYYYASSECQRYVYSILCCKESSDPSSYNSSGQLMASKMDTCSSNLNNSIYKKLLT
Description: In Vitro Thrombin Receptor Binding Assay
CHRF membranes (Jones, Biochim. Biophys. Acta 1992, 1136, 272) are thawed from −70° C., centrifuged at maximum speed for 5 min, washed twice with binding buffer (50 mM HEPES containing 5 mM MgCl2 and 0.1% BSA), and re-suspended in binding buffer ([…]). 100 μL of membranes are added to the 24-Wallac plates and delivered to the Tomtech apparatus. In a typical experiment, 6 μL of samples (from a 125 μg/mL intermediary plate, 20% DMSO) and 44 μL buffer are delivered to the plates (final conc. of compounds is 3.7 μg/mL, 0.6% DMSO). Similarly, 6 μL 20% DMSO and 44 μL buffer are delivered to both column 1 (NSB) and column 12 (TB). 10 μL Ser-pFPhe-Har-Leu-Har-Lys-Tyr-NH2 (721-40; 500 μM in deionized water) is added to column 1. 50 μL tritiated 721-40 (specific activity 46 Ci/mmol) is added to all the wells. The plates are mixed well for 20 seconds, incubated for 30 min, and then harvested with 10 mM HEPES/138 mM NaCl using the Skatron harvester. The filters (GF/C Brandel FPXLR 296) are presoaked 3 h in 0.5% polyethylenimine in HEPES/0.1M N-acetylglucosamine) are set in saran wrap and dried for 3 min in the microwave, and placed in sample bags (Wallac 1450-432). 4.5 mL scintillation fluid (Wallac, Betaplate Scint 1205-440) is added. The bags are sealed, placed in filter cassettes (Wallac 1450-104), and analyzed on the microbeta counter.

[2] = test system: gel-filtered platelets (thrombin-induced aggregation); experiment: In vitro inhibition of thrombin-induced gel-filtered platelet aggregation assay; format: cell-based; settings: platelet aggregation stimulated by thrombin, gel-filtered human platelets, read-out: GFP Aggr. IC50
Description: In Vitro Inhibition Of Thrombin-induced Gel-filtered Platelet Aggregation Assay
The percentage of platelet aggregation is calculated as an increase in light transmission of compound-treated platelet concentrate vs. control-treated platelet concentrate. Human blood is obtained from drug free, normal donors in tubes containing 0.13M sodium citrate. Platelet rich plasma (PRP) is collected by centrifugation of whole blood at 200×g for 10 min at 25° C. The PRP (5 mL) is gel filtered through Sepharose 2B (bed volume 50 mL), and the platelet count is adjusted to 2×10^7 platelets per sample. The following constituents are added to a siliconized cuvette: concentrated platelet filtrate and Tyrode's buffer (0.14M NaCl, 0.0027M KCl, 0.012M NaHCO3, 0.76 mM Na2HPO4, 0.0055M glucose, 2 mg/mL BSA and 5.0 mM HEPES @ pH 7.4) in an amount equal to 350 μL, 50 μL of 20 mM calcium and 50 μL of the test compound. Aggregation is monitored in a BIODATA aggregometer for the 3 min following the addition of agonist (thrombin 50 μL of 1 unit/mL).

[3] = Table 1, read-out: Recptr Bdg. IC50
[4] = Table 2, read-out: Recptr Bdg. IC50

SMILES | IC50 [1, 3] | IC50 ([2]; Table 1) | IC50 [1, 4] | IC50 ([2]; Table 2)
NCCN(CC(=O)NCc1ccccc1)C(=O)[C@H](Cc1ccc(F)c(F)c1)NC(=O)Nc1ccc2c(CN3CCCC3)nn(Cc3c(Cl)cccc3Cl)c2c1 [Compound 1] | 500 nM | 1300 nM | – | –
NCCN(CC(=O)NCc1ccccc1)C(=O)[C@H](Cc1ccc(F)c(F)c1)NC(=O)Nc1ccc2c(CN3CCCC3)cn(Cc3c(Cl)cccc3Cl)c2c1 [Compound 2] | 300 nM | 1700 nM | – | –
NCCCCN(CC(=O)NCc1ccccc1)C(=O)[C@H](Cc1ccc(F)c(F)c1)NC(=O)Nc1ccc2c(CN3CCCC3)nn(Cc3c(Cl)cccc3Cl)c2c1 [Compound 3] | 300 nM | 260 nM | – | –
NCCCCN(CC(=O)NCc1ccccc1)C(=O)[C@H](Cc1ccc(F)c(F)c1)NC(=O)Nc1ccc2c(CN3CCCC3)cn(Cc3c(Cl)cccc3Cl)c2c1 [Compound 4] | 220 nM | 260 nM | – | –
O=C(CN(Cc1ccccc1)C(=O)[C@H](Cc1ccc(F)c(F)c1)NC(=O)Nc1ccc2c(CN3CCCC3)cn(Cc3c(Cl)cccc3Cl)c2c1)NCc1ccccc1 [Compound 5] | 380 nM | 22000 nM | – | –
NCCCN(Cc1cccs1)C(=O)[C@H](Cc1ccc(F)c(F)c1)NC(=O)Nc1ccc2c(CN3CCCC3)cn(Cc3c(Cl)cccc3Cl)c2c1 [Compound 6, Benzene Propanamide, N-(3-aminopropyl)-N-(2-thiophenemethyl)-α-[[[[[1-(2,6-dichlorophenyl)methyl]-3-(1-pyrrolidinylmethyl)-1H-indol-6-yl]amino]carbonyl]amino]-3,4-difluoro-, (αS)-] | 10300 nM | 600 nM | – | –
N=C(N)NCCC[C@H](NC(=O)CN(CCCCCN)C(=O)Nc1ccc2c(CN3CCCC3)cn(Cc3c(Cl)cccc3Cl)c2c1)C(=O)NCc1ccccc1 [Compound 13] | – | – | > 100000 nM | 1000 nM
N=C(N)NCCC[C@H](NC(=O)CN(Cc1ccc(Cl)cc1)C(=O)Nc1ccc2c(CN3CCCC3)cn(Cc3c(Cl)cccc3Cl)c2c1)C(=O)NCc1ccccc1 [Compound 14] | – | – | 6900 nM | 6300 nM
N=C(N)NCCC[C@H](NC(=O)CN(Cc1ccc(F)cc1)C(=O)Nc1ccc2c(CN3CCCC3)cn(Cc3c(Cl)cccc3Cl)c2c1)C(=O)NCc1ccccc1 [Compound 15, N-4-Fluorophenylmethyl-N-{[1-(2,6-dichlorophenyl)methyl-3-(1-pyrrolidinylmethyl)-1H-indol-6-yl]aminocarbonyl}-clycinyl-L-arginin-N-benzyl-amide] | – | – | 8100 nM | 2100 nM
